What all share (assay): relative viability (nuclei count vs DMSO), 5 days (fraction); higher = more cells survive
Compound in the experiment “Olaparib + Dasatinib”: O=C(c1cc(Cc2n[nH]c(=O)c3ccccc23)ccc1F)N1CCN(C(=O)C2CC2)CC1 [Olaparib] + Cc1nc(Nc2ncc(C(=O)Nc3c(C)cccc3Cl)s2)cc(N2CCN(CCO)CC2)n1 [Dasatinib] (partner 0.075 µM)
The method, boiled down: (§1)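 Each reported value is a median over duplicate plates. It expresses relative viability: treated-well nuclei count divided by vehicle-well nuclei count. Lung cancer cell lines in 1536-well plates were dosed by pin tool a day after seeding, alone with one drug or with a fixed anchor-drug dose plus five library-drug doses (not always all listed) in √10 steps, and nuclei were counted after 5 days.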

Compound in the experiment “Crizotinib + Alpelisib”: C[C@@H](Oc1cc(-c2cnn(C3CCNCC3)c2)cnc1N)c1c(Cl)ccc(F)c1Cl [Crizotinib] + Cc1nc(NC(=O)N2CCC[C@H]2C(N)=O)sc1-c1ccnc(C(C)(C)C(F)(F)F)c1 [Alpelisib] (partner 2 µM)
The method in brief: as §1

Compound in the experiment “Crizotinib + AZD7762”: C[C@@H](Oc1cc(-c2cnn(C3CCNCC3)c2)cnc1N)c1c(Cl)ccc(F)c1Cl [Crizotinib] + NC(=O)Nc1cc(-c2cccc(F)c2)sc1C(=O)N[C@H]1CCCNC1 [AZD7762] (partner 0.2 µM)
The method, boiled down:
as §1

Compound in the experiment “Carfilzomib + Alpelisib”: CC(C)C[C@H](NC(=O)[C@H](CCc1ccccc1)NC(=O)CN1CCOCC1)C(=O)N[C@@H](Cc1ccccc1)C(=O)N[C@@H](CC(C)C)C(=O)[C@@]1(C)CO1 [Carfilzomib] + Cc1nc(NC(=O)N2CCC[C@H]2C(N)=O)sc1-c1ccnc(C(C)(C)C(F)(F)F)c1 [Alpelisib] (partner 2 µM)
The method in brief:
as §1

Compound in the experiment “Olaparib + AZD7762”: O=C(c1cc(Cc2n[nH]c(=O)c3ccccc23)ccc1F)N1CCN(C(=O)C2CC2)CC1 [Olaparib] + NC(=O)Nc1cc(-c2cccc(F)c2)sc1C(=O)N[C@H]1CCCNC1 [AZD7762] (partner 0.2 µM)
The method, boiled down:
as §1

For 1 cell line, relative viability results are on record in the supplement of paper PMC10307832.

For NCI-H1793, the relative viability in the experiment with Olaparib + Dasatinib (first compound 0.08 µM) was determined as 0.377; with Olaparib + Dasatinib (first compound 0.253 µM), 0.38; with Olaparib + Dasatinib (first compound 2.53 µM), 0.353; in the experiment with Olaparib + Dasatinib (first compound 8 µM) it was 0.303; with Crizotinib + Alpelisib (first compound 0.01 µM), 0.703; in the experiment with Crizotinib + Alpelisib (first compound 0.03162 µM), 0.789. In addition, the relative viability turned out to be 0.729 in the experiment with Crizotinib + Alpelisib (first compound 0.1 µM); 0.872 with Crizotinib + Alpelisib (first compound 1 µM); 0.435 with Crizotinib + AZD7762 (first compound 0.03162 µM); 0.41 with Crizotinib + AZD7762 (first compound 0.1 µM); 0.621 with Crizotinib + AZD7762 (first compound 1 µM); 0.767 with Carfilzomib + Alpelisib (first compound 0.003162 µM). In addition, the relative viability was found to be 0.804 with Carfilzomib + Alpelisib (first compound 0.01 µM); 0.68 in the experiment with Carfilzomib + Alpelisib (first compound 0.03162 µM); 0.356 in the experiment with Carfilzomib + Alpelisib (first compound 0.1 µM); 0.747 in the experiment with Olaparib + AZD7762 (first compound 0.08 µM); 0.438 with Olaparib + AZD7762 (first compound 0.253 µM); 0.488 with Olaparib + AZD7762 (first compound 2.53 µM). The relative viability with Olaparib + AZD7762 (first compound 8 µM) was 0.283.
